According to PubChem BioAssay AID2060901 (Molecular Pharmacology Branch, DTP, NCI, 2025):
Several values for one entry are separate records, joined by “and”; a condition that tells them apart may be missing. Equal entries are not always repeated. Values belong to the molecule of their own block, whether it stands above or below them.

Test system: 422866-222-R5-J1-PDC complex spheroids viability
Experiment: Anticancer human tumor 422866-222-R5-J1-PDC patient-derived pancreatic adenocarcinoma cell line growth inhibition [RAS]
Details: for viability, T/C: stronger effect = lower value
From the text: RAS pathway inhibitors in Combinations in Complex Spheroids
A high-throughput screen of multi-cell type tumor spheroids was designed to identify active combinations of RAS pathway inhibitors and targeted small molecules. Complex spheroids include a stromal component modeled by human endothelial cells (HUVEC) and fibroblasts modeled by human mesenchymal stem cells (MSCs). The concentration ranges selected for each drug and investigational agent were based upon clinically achievable concentrations if the clinical Cmax of the agent was known.
Compounds. The drugs and investigational agents: abemaciclib (NSC768073), cobimetinib (NSC768068), divarasib (GDC6063, NSC841802), docetaxel (NSC628503), GDC-1971 (RLY-1971, NSC841576), gemcitabine (NSC613327), inavolisib (NSC800729), ipatasertib (NSC767898), KB-0742 (NSC834161), MRTX-1133 (NSC836407), osimertinib (NSC779217), RMC-4630 (NSC839698), RMC-6236 (NSC851965), RMC-6291 (NSC852671), Ro-3306 (NSC812927), sapanisertib (NSC764658), SN-38 (NSC673596), staurosporine (NSC755774), SY5609 (NSC837396), and tovorafenib (DAY101, NSC766906), were obtained from the National Cancer Institute (NCI) Developmental Therapeutics Program Chemical Repository. The FDA-approved anticancer drug set is available from the NCI Developmental Therapeutics Program. […] The stock solutions were prepared in dimethyl sulfoxide (DMSO, Sigma-Aldrich, St. Louis, MO, cat. D2650) at 800-fold the tested concentration and stored at -70 degrees C prior to their use. All drugs and investigational agents were tested over a range starting from a high concentration at or near the clinical Cmax and decreasing in half-log increments. If the clinical Cmax for an agent had not been determined, the highest concentration tested was 10 microM.
Cell Culture. All cells were maintained in an incubator at 37 degrees C and 5% CO2 with 95% humidity. The PDC lines were cultured according to standard operating procedures established by the NCI PDMR. All PDCs were thawed and cultured in Matrigel-coated flasks prepared with a working solution of 1X Ham's F-12 nutrient mix, without supplementation (Invitrogen, Waltham, MA, cat. 11765054), 100 U/mL penicillin-streptomycin (Invitrogen, cat. 15140122), and 2.5% Matrigel (Corning Inc., Corning, NY, cat. 354248) for the first three passages. The 362531-283-R-J2-PDC and 782815-120-R-J1-PDC lines were cultured in 6C/Colon 1B media, which includes advanced DMEM/F-12 (Thermo Fisher Scientific, cat. 12634028), 10 mM HEPES (Thermo Fisher Scientific, cat. 15630080), 1X GlutaMAX supplement (Thermo Fisher Scientific, cat. 35050061), 0.1 mg/mL primocin (InvivoGen, San Diego, CA, cat. ant-pm-2), 10% defined fetal bovine serum, heat inactivated (HyClone Laboratories Inc., Logan, UT, cat. SH30070.03HI), 50% L-WRN conditioned media (ATCC, cat. CRL-3276), 1.25 mM N-Acetyl-L-cysteine (Sigma-Aldrich, cat. A9165), 10 mM nicotinamide (Sigma-Aldrich, cat. N0636), 1X B-27 supplement (Thermo Fisher Scientific, cat. 17504044), 1X N-2 supplement (Thermo Fisher Scientific, cat. 17502048), 50 ng/mL human EGF (Thermo Fisher Scientific, cat. PHG0311), and 10 microM Y-27632 dihydrochloride (Tocris Bioscience, cat. 1254). The K12877-001-R-J1-PDC line was cultured in 6I media, which includes all 6C/Colon 1B media plus 10 ng/mL human FGF-10 (PeproTech, cat. 100-26), 1 ng/mL human FGF-2 (PeproTech, cat. 100-18B), 1 µM prostaglandin E2 (Tocris Bioscience, cat. 2296), […] hydrocortisone (Sigma-Aldrich, cat. H4001), and […] bovine insulin (Sigma-Aldrich, cat. I6634). The K86415-001-R-J1-PDC line was cultured in 6D media, which includes all 6C/Colon 1B media components minus the L-WRN conditioned media. The 485176-168-R4-J1-PDC was cultured in PANC media, which includes all 6C/Colon 1B media plus 100 ng/mL human FGF-10 (PeproTech, cat. 100-26), 500 nM SB-431542 (Selleckchem, cat. S1067), and 10 nM gastrin (Tocris Bioscience, cat. 3006). […]

[1] = curve of first compound, second compound 0.000949 µM
[2] = curve of first compound, second compound 0.003 µM
[3] = curve of first compound, second compound 0.00949 µM
[4] = curve of first compound, second compound 0.03 µM
[5] = curve of first compound, second compound 0.0949 µM
[6] = curve of first compound, second compound 0.3 µM
[7] = second compound 0.000949 µM, first compound 0.0316 µM
[8] = second compound 0.000949 µM, first compound 0.1 µM
[9] = second compound 0.000949 µM, first compound 0.316 µM
[10] = second compound 0.000949 µM, first compound 1 µM
[11] = second compound 0.000949 µM, first compound 3.16 µM
[12] = second compound 0.000949 µM, first compound 10 µM
[13] = second compound 0.003 µM, first compound 0.0316 µM
[14] = second compound 0.003 µM, first compound 0.1 µM
[15] = second compound 0.003 µM, first compound 0.316 µM
[16] = second compound 0.003 µM, first compound 1 µM
[17] = second compound 0.003 µM, first compound 3.16 µM
[18] = second compound 0.003 µM, first compound 10 µM
[19] = second compound 0.00949 µM, first compound 0.0316 µM
[20] = second compound 0.00949 µM, first compound 0.1 µM
[21] = second compound 0.00949 µM, first compound 0.316 µM
[22] = second compound 0.00949 µM, first compound 1 µM
[23] = second compound 0.00949 µM, first compound 3.16 µM
[24] = second compound 0.00949 µM, first compound 10 µM
[25] = second compound 0.03 µM, first compound 0.0316 µM
[26] = second compound 0.03 µM, first compound 0.1 µM
[27] = second compound 0.03 µM, first compound 0.316 µM
[28] = second compound 0.03 µM, first compound 1 µM
[29] = second compound 0.03 µM, first compound 3.16 µM
[30] = second compound 0.03 µM, first compound 10 µM
[31] = second compound 0.0949 µM, first compound 0.0316 µM
[32] = second compound 0.0949 µM, first compound 0.1 µM
[33] = second compound 0.0949 µM, first compound 0.316 µM
[34] = second compound 0.0949 µM, first compound 1 µM
[35] = second compound 0.0949 µM, first compound 3.16 µM
[36] = second compound 0.0949 µM, first compound 10 µM
[37] = second compound 0.3 µM, first compound 0.0316 µM
[38] = second compound 0.3 µM, first compound 0.1 µM
[39] = second compound 0.3 µM, first compound 0.316 µM
[40] = second compound 0.3 µM, first compound 1 µM
[41] = second compound 0.3 µM, first compound 3.16 µM
[42] = second compound 0.3 µM, first compound 10 µM
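For viability, T/C in this document: 100% = DMSO vehicle control viability.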

IC50 (curve of compound): 8910 nM and > 10000 nM and 9300 nM
Structure (SMILES): CC1(O)CCCC1n1c(=O)c(C(F)F)cc2cnc(NC3CCN(S(C)(=O)=O)CC3)nc21 (stereo unspecified)
viability, T/C (compound 0.0316 µM): 82.7% [middle of 4 runs] | viability, T/C (compound 0.316 µM): 85.5% [middle of 4 runs] | viability, T/C (compound 1 µM): 91.1% [middle of 4 runs] | viability, T/C (compound 10 µM): 58.4% [middle of 4 runs]

IC50 [1]: < 31.6 nM | IC50 [2]: < 31.6 nM | IC50 [3]: < 31.6 nM | IC50 [4]: < 31.6 nM | IC50 [5]: < 31.6 nM | IC50 [6]: < 31.6 nM
Structure (SMILES): CC(C)NCC(C(=O)N1CCN(c2ncnc3c2C(C)CC3O)CC1)c1ccc(Cl)cc1 (stereo unspecified) + CCn1c(-c2cc(N3CCN(C)CC3)cnc2C(C)OC)c2c3cc(ccc31)-c1csc(n1)CC(NC(=O)C1CC1C)C(=O)N1CCCC(N1)C(=O)OCC(C)(C)C2
viability, T/C [7]: 29.7% | viability, T/C [8]: 25.9% | viability, T/C [9]: 20.5% | viability, T/C [10]: 21.1% | viability, T/C [11]: 27.7% | viability, T/C [12]: 33.9% | viability, T/C [13]: 25.2% | viability, T/C [14]: 20.6% | viability, T/C [15]: 17.4% | viability, T/C [16]: 13.4% | viability, T/C [17]: 17.8% | viability, T/C [18]: 17.7% | viability, T/C [19]: 20.4% | viability, T/C [20]: 15.2% | viability, T/C [21]: 14.7% | viability, T/C [22]: 11.6% | viability, T/C [23]: 14.1% | viability, T/C [24]: 15.7% | viability, T/C [25]: 20.1% | viability, T/C [26]: 15.8% | viability, T/C [27]: 14.9% | viability, T/C [28]: 11.9% | viability, T/C [29]: 11.9% | viability, T/C [30]: 13.8% | viability, T/C [31]: 16.5% | viability, T/C [32]: 17.4% | viability, T/C [33]: 13.1% | viability, T/C [34]: 11.7% | viability, T/C [35]: 12.4% | viability, T/C [36]: 13.8% | viability, T/C [37]: 18.8% | viability, T/C [38]: 19.6% | viability, T/C [39]: 14.2% | viability, T/C [40]: 11.5% | viability, T/C [41]: 12.9% | viability, T/C [42]: 13.8%

IC50 [1]: < 31.6 nM | IC50 [2]: < 31.6 nM | IC50 [3]: < 31.6 nM | IC50 [4]: < 31.6 nM | IC50 [5]: < 31.6 nM | IC50 [6]: < 31.6 nM
Structure (SMILES): CC(C)NCC(C(=O)N1CCN(c2ncnc3c2C(C)CC3O)CC1)c1ccc(Cl)cc1 (stereo unspecified) + CCn1c(-c2cccnc2C(C)OC)c2c3cc(ccc31)N1CCOC(CC(NC(=O)C(C(C)C)N(C)C(=O)C3(F)CCN(C(=O)C#CC(C)(C)N(C)C)CC3)C(=O)N3CCCC(N3)C(=O)OCC(C)(C)C2)C1
viability, T/C [7]: 23% | viability, T/C [8]: 23.2% | viability, T/C [9]: 17.5% | viability, T/C [10]: 25% | viability, T/C [11]: 30.9% | viability, T/C [12]: 29.7% | viability, T/C [13]: 22.5% | viability, T/C [14]: 17.6% | viability, T/C [15]: 14.4% | viability, T/C [16]: 14.7% | viability, T/C [17]: 14.4% | viability, T/C [18]: 16.7% | viability, T/C [19]: 21.1% | viability, T/C [20]: 18.9% | viability, T/C [21]: 13.8% | viability, T/C [22]: 13.3% | viability, T/C [23]: 14.8% | viability, T/C [24]: 14.6% | viability, T/C [25]: 17.5% | viability, T/C [26]: 16% | viability, T/C [27]: 12.9% | viability, T/C [28]: 12.1% | viability, T/C [29]: 14.2% | viability, T/C [30]: 16.2% | viability, T/C [31]: 15.2% | viability, T/C [32]: 12% | viability, T/C [33]: 11.8% | viability, T/C [34]: 13.2% | viability, T/C [35]: 15.3% | viability, T/C [36]: 14.1% | viability, T/C [37]: 13.8% | viability, T/C [38]: 13.4% | viability, T/C [39]: 11.3% | viability, T/C [40]: 11.4% | viability, T/C [41]: 14.7% | viability, T/C [42]: 11.6%

IC50 (compound alone, run of 05/20/2024): < 0.949 nM
Structure (SMILES): CCn1c(-c2cccnc2C(C)OC)c2c3cc(ccc31)N1CCOC(CC(NC(=O)C(C(C)C)N(C)C(=O)C3(F)CCN(C(=O)C#CC(C)(C)N(C)C)CC3)C(=O)N3CCCC(N3)C(=O)OCC(C)(C)C2)C1 (stereo unspecified)
viability, T/C (compound 0.000949 µM): 25.9% [middle of 8 runs] | viability, T/C (compound 0.003 µM): 23.3% [middle of 8 runs] | viability, T/C (compound 0.00949 µM): 21.9% [middle of 8 runs] | viability, T/C (compound 0.03 µM): 22.1% [middle of 8 runs] | viability, T/C (compound 0.0949 µM): 22.5% [middle of 8 runs] | viability, T/C (compound 0.3 µM): 20.2% [middle of 8 runs]
